Test results from PubChem BioAssay AID272 (DTP/NCI, 2004).
Several values for one entry are separate records, joined by “and”; a condition that tells them apart may be missing. Equal entries are not always repeated. Inconclusive results are not listed.

System: Lewis lung carcinoma i.m., BDF1 mice, T/C %
Assay: NCI In Vivo Anticancer Drug Screen. Data for tumor model Lewis Lung Carcinoma (intramuscular) in B6D2F1 (BDF1) mice
Summary of the method: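 Value is the ratio of a treated-group measurement (T) to the matching vehicle-control measurement (C), using either survival or tumour size in mice bearing transplanted tumours.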

Compound: O=NN(CCCl)C(=O)NCCCl
- T/C (endpoint: mean tumor weight, dose: 1.5 mg/kg/injection, schedule: Q01DX011 (ip), vehicle: other, higher = larger tumour): 57 % of control
- T/C (endpoint: mean tumor weight, dose: 3.0 mg/kg/injection, schedule: Q01DX011 (ip), vehicle: other, higher = larger tumour): 47 % of control
- T/C (endpoint: mean tumor weight, dose: 6.0 mg/kg/injection, schedule: Q01DX011 (ip), vehicle: other, higher = larger tumour): 12 % of control
- T/C (endpoint: mean tumor weight, dose: 14.0 mg/kg/injection, schedule: Q01DX001 (sc), vehicle: saline, higher = larger tumour): 76 % of control
- T/C (endpoint: mean tumor weight, dose: 23.0 mg/kg/injection, schedule: Q01DX001 (sc), vehicle: saline, higher = larger tumour): 65 % of control
- T/C (endpoint: mean tumor weight, dose: 39.0 mg/kg/injection, schedule: Q01DX001 (sc), vehicle: saline, higher = larger tumour): 35 % of control
- T/C (endpoint: mean tumor weight, dose: 65.0 mg/kg/injection, schedule: Q01DX001 (sc), vehicle: saline, higher = larger tumour): 22 % of control
- T/C (endpoint: median survival time, dose: 1.0 mg/kg/injection, schedule: Q01DX009 (ip), vehicle: saline + alcohol, higher = longer survival): 113 % of control
- T/C (endpoint: median survival time, dose: 1.25 mg/kg/injection, schedule: Q01DX015 (ip), vehicle: saline, higher = longer survival): 108 % of control
- T/C (endpoint: median survival time, dose: 1.5 mg/kg/injection, schedule: Q01DX011 (ip), vehicle: other, higher = longer survival): 102 % of control
- T/C (endpoint: median survival time, dose: 1.5 mg/kg/injection, schedule: Q01DX011 (ip), vehicle: saline, higher = longer survival): 110 % of control
- T/C (endpoint: median survival time, dose: 2.0 mg/kg/injection, schedule: Q01DX011 (ip), vehicle: saline, higher = longer survival): 97 % of control
- T/C (endpoint: median survival time, dose: 2.5 mg/kg/injection, schedule: Q01DX015 (ip), vehicle: saline, higher = longer survival): 124 % of control
- T/C (endpoint: median survival time, dose: 3.0 mg/kg/injection, schedule: Q01DX011 (ip), vehicle: other, higher = longer survival): 104 % of control
- T/C (endpoint: median survival time, dose: 4.0 mg/kg/injection, schedule: Q01DX009 (ip), vehicle: saline + alcohol, higher = longer survival): 113 % of control
- T/C (endpoint: median survival time, dose: 4.0 mg/kg/injection, schedule: Q01DX011 (ip), vehicle: saline, higher = longer survival): 115 % of control
- T/C (endpoint: median survival time, dose: 5.0 mg/kg/injection, schedule: Q01DX001 (ip), vehicle: saline + alcohol, higher = longer survival): 107 % of control
- T/C (endpoint: median survival time, dose: 5.0 mg/kg/injection, schedule: Q01DX015 (ip), vehicle: saline, higher = longer survival): 111 % of control
- T/C (endpoint: median survival time, dose: 5.0 mg/kg/injection, schedule: Q07DX003 (ip), vehicle: saline, higher = longer survival): 95 % of control
- T/C (endpoint: median survival time, dose: 5.0 mg/kg/injection, schedule: Q16DX002 (ip), vehicle: saline, higher = longer survival): 167 % of control
- T/C (endpoint: median survival time, dose: 5.0 mg/kg/injection, schedule: Q## X002 (ip), vehicle: saline, higher = longer survival): 168 % of control
- T/C (endpoint: median survival time, dose: 6.0 mg/kg/injection, schedule: Q01DX011 (ip), vehicle: saline, higher = longer survival): 157 % of control
- T/C (endpoint: median survival time, dose: 8.0 mg/kg/injection, schedule: Q01DX011 (ip), vehicle: saline, higher = longer survival): 102 % of control and 110 % of control
- T/C (endpoint: median survival time, dose: 8.4 mg/kg/injection, schedule: Q01DX001 (ip), vehicle: saline, higher = longer survival): 158 % of control and 160 % of control
- T/C (endpoint: median survival time, dose: 8.4 mg/kg/injection, schedule: Q06DX002 (ip), vehicle: saline, higher = longer survival): 105 % of control
- T/C (endpoint: median survival time, dose: 8.4 mg/kg/injection, schedule: Q16DX002 (ip), vehicle: saline, higher = longer survival): 89 % of control
- T/C (endpoint: median survival time, dose: 8.4 mg/kg/injection, schedule: Q## X002 (ip), vehicle: saline, higher = longer survival): 87 % of control
- T/C (endpoint: median survival time, dose: 10.0 mg/kg/injection, schedule: Q01DX001 (ip), vehicle: saline + alcohol, higher = longer survival): 111 % of control
- T/C (endpoint: median survival time, dose: 10.0 mg/kg/injection, schedule: Q07DX003 (ip), vehicle: saline, higher = longer survival): 94 % of control
- T/C (endpoint: median survival time, dose: 14.0 mg/kg/injection, schedule: Q01DX001 (ip), vehicle: saline, higher = longer survival): 156 % of control and 157 % of control
- T/C (endpoint: median survival time, dose: 14.0 mg/kg/injection, schedule: Q01DX001 (sc), vehicle: saline, higher = longer survival): 112 % of control
- T/C (endpoint: median survival time, dose: 14.0 mg/kg/injection, schedule: Q06DX002 (ip), vehicle: saline, higher = longer survival): 102 % of control
- T/C (endpoint: median survival time, dose: 14.0 mg/kg/injection, schedule: Q07DX003 (ip), vehicle: saline, higher = longer survival): 102 % of control
- T/C (endpoint: median survival time, dose: 16.0 mg/kg/injection, schedule: Q01DX011 (ip), vehicle: saline, higher = longer survival): 91 % of control
- T/C (endpoint: median survival time, dose: 20.0 mg/kg/injection, schedule: Q01DX001 (ip), vehicle: saline + alcohol, higher = longer survival): 123 % of control
- T/C (endpoint: median survival time, dose: 20.0 mg/kg/injection, schedule: Q07DX003 (ip), vehicle: saline, higher = longer survival): 111 % of control
- T/C (endpoint: median survival time, dose: 23.0 mg/kg/injection, schedule: Q01DX001 (ip), vehicle: saline, higher = longer survival): 208 % of control and 210 % of control
- T/C (endpoint: median survival time, dose: 23.0 mg/kg/injection, schedule: Q06DX002 (ip), vehicle: saline, higher = longer survival): 109 % of control
- T/C (endpoint: median survival time, dose: 23.0 mg/kg/injection, schedule: Q07DX003 (ip), vehicle: saline, higher = longer survival): 108 % of control
- T/C (endpoint: median survival time, dose: 39.0 mg/kg/injection, schedule: Q01DX001 (ip), vehicle: saline, higher = longer survival): 216 % of control and 218 % of control
- T/C (endpoint: median survival time, dose: 39.0 mg/kg/injection, schedule: Q06DX002 (ip), vehicle: saline, higher = longer survival): 102 % of control
- T/C (endpoint: median survival time, dose: 39.0 mg/kg/injection, schedule: Q16DX002 (ip), vehicle: saline, higher = longer survival): 61 % of control and 101 % of control
- T/C (endpoint: median survival time, dose: 39.0 mg/kg/injection, schedule: Q## X002 (ip), vehicle: saline, higher = longer survival): 104 % of control
- T/C (endpoint: median survival time, dose: 40.0 mg/kg/injection, schedule: Q01DX001 (ip), vehicle: saline + alcohol, higher = longer survival): 64 % of control
- T/C (endpoint: median survival time, dose: 65.0 mg/kg/injection, schedule: Q01DX001 (ip), vehicle: saline, higher = longer survival): 38 % of control
- T/C (endpoint: median survival time, dose: 65.0 mg/kg/injection, schedule: Q06DX002 (ip), vehicle: saline, higher = longer survival): 45 % of control
- T/C (endpoint: median survival time, dose: 65.0 mg/kg/injection, schedule: Q16DX002 (ip), vehicle: saline, higher = longer survival): 24 % of control
